# Reference: ChEMBL document CHEMBL3885861, “Open TG-GATES”
# Species on record: Rattus norvegicus
# Test: Open TG-GATES - Regimen: Daily Repeat
# Assay type: toxicity, organism-based, Sprague-Dawley
# Set-up: regimen Daily Repeat, gender Male, age 6 weeks
# Settings: in vivo, po, 10 mg/kg, route gavage, dose level Low; for APTT / Bas / Eos / Fbg / Hb / Ht / Lym / MCH / MCHC / MCV / Mono / Neu / PT / Plat / RBC / Ret / WBC: tissue Blood; for KIDNEY_L / KIDNEY_R / KIDNEY_TOTAL: tissue Kidney; for LIVER: tissue Liver; for A/G / ALP / ALT / AST / BUN / CRE / Ca / Cl / DBIL / GLC / IP / K / LDH / Na / PL / RALB / TBIL / TC / TG / TP / gamma-GTP: tissue Plasma
smiles,measurement,setting,value
CCCc1cc(=O)[nH]c(=S)[nH]1 [PROPYLTHIOURACIL],TERMINAL_BW,"72 h, time 3 day",207 g
same,APTT,"72 h, time 3 day",15.4 s
same,Bas,"72 h, time 3 day",0%
same,Eos,"72 h, time 3 day",0%
same,Fbg,"72 h, time 3 day",238.6 mg/dL
same,Hb,"72 h, time 3 day",13.5 g/dL
same,Ht,"72 h, time 3 day",40.4%
same,Lym,"72 h, time 3 day",75.2%
same,MCH,"72 h, time 3 day",21.4 pg
same,MCHC,"72 h, time 3 day",33.3%
same,MCV,"72 h, time 3 day",64.3 fL
same,Mono,"72 h, time 3 day",7.4%
same,Neu,"72 h, time 3 day",17.4%
same,PT,"72 h, time 3 day",12.4 s
same,Plat,"72 h, time 3 day",93.7 x10_4/uL
same,RBC,"72 h, time 3 day",629.4 x10_4/ul
same,Ret,"72 h, time 3 day",6.6%
same,WBC,"72 h, time 3 day",124.3 x10_2/uL
same,KIDNEY_L,"72 h, time 3 day",0.9 g
same,KIDNEY_R,"72 h, time 3 day",0.9 g
same,KIDNEY_TOTAL,"72 h, time 3 day",1.8 g
same,LIVER,"72 h, time 3 day",10 g
same,A/G,"72 h, time 3 day",2
same,ALP,"72 h, time 3 day",1039.8 IU/L
same,ALT,"72 h, time 3 day",30.4 IU/L
same,AST,"72 h, time 3 day",54.4 IU/L
same,BUN,"72 h, time 3 day",20 mg/dL
same,CRE,"72 h, time 3 day",0.5 mg/dL
same,Ca,"72 h, time 3 day",11.2 mg/dL
same,Cl,"72 h, time 3 day",105.8 meq/L
same,DBIL,"72 h, time 3 day",0 mg/dL
same,GLC,"72 h, time 3 day",185.4 mg/dL
same,IP,"72 h, time 3 day",7.1 mg/dL
same,K,"72 h, time 3 day",4.7 meq/L
same,LDH,"72 h, time 3 day",81.2 IU/L
same,Na,"72 h, time 3 day",138 meq/L
same,PL,"72 h, time 3 day",161.4 mg/dL
same,RALB,"72 h, time 3 day",3.9 g/dL
same,TBIL,"72 h, time 3 day",0.3 mg/dL
same,TC,"72 h, time 3 day",97.6 mg/dL
same,TG,"72 h, time 3 day",87.4 mg/dL
same,TP,"72 h, time 3 day",5.9 g/dL
same,gamma-GTP,"72 h, time 3 day",2 IU/L
same,TERMINAL_BW,"[…], time 7 day",233.5 g
same,TERMINAL_BW,"[…], time 14 day",245.3 g
same,TERMINAL_BW,"[…], time 28 day",243.1 g
same,APTT,"[…], time 7 day",15.3 s
same,Bas,"[…], time 7 day",0%
same,Eos,"[…], time 7 day",0.2%
same,Fbg,"[…], time 7 day",252.2 mg/dL
same,Hb,"[…], time 7 day",13.9 g/dL
same,Ht,"[…], time 7 day",41.5%
same,Lym,"[…], time 7 day",86.6%
same,MCH,"[…], time 7 day",21 pg
same,MCHC,"[…], time 7 day",33.4%
same,MCV,"[…], time 7 day",62.8 fL
same,Mono,"[…], time 7 day",6.6%
same,Neu,"[…], time 7 day",6.6%
same,PT,"[…], time 7 day",12.6 s
same,Plat,"[…], time 7 day",117.2 x10_4/uL
same,RBC,"[…], time 7 day",662.4 x10_4/ul
same,Ret,"[…], time 7 day",4%
same,WBC,"[…], time 7 day",116 x10_2/uL
same,APTT,"[…], time 14 day",16.4 s
same,Bas,"[…], time 14 day",0%
same,Eos,"[…], time 14 day",0.4%
same,Fbg,"[…], time 14 day",194.6 mg/dL
same,Hb,"[…], time 14 day",14.7 g/dL
same,Ht,"[…], time 14 day",43.7%
same,Lym,"[…], time 14 day",90.6%
same,MCH,"[…], time 14 day",20.6 pg
same,MCHC,"[…], time 14 day",33.7%
same,MCV,"[…], time 14 day",61.1 fL
same,Mono,"[…], time 14 day",3.8%
same,Neu,"[…], time 14 day",5.2%
same,PT,"[…], time 14 day",14 s
same,Plat,"[…], time 14 day",101.1 x10_4/uL
same,RBC,"[…], time 14 day",715.2 x10_4/ul
same,Ret,"[…], time 14 day",1.3%
same,WBC,"[…], time 14 day",120.9 x10_2/uL
same,APTT,"[…], time 28 day",15.2 s
same,Bas,"[…], time 28 day",0%
same,Eos,"[…], time 28 day",1.6%
same,Fbg,"[…], time 28 day",176.8 mg/dL
same,Hb,"[…], time 28 day",16.3 g/dL
same,Ht,"[…], time 28 day",48.4%
same,Lym,"[…], time 28 day",85.4%
same,MCH,"[…], time 28 day",19.3 pg
same,MCHC,"[…], time 28 day",33.7%
same,MCV,"[…], time 28 day",57.5 fL
same,Mono,"[…], time 28 day",4.8%
same,Neu,"[…], time 28 day",8.2%
same,PT,"[…], time 28 day",14.8 s
same,Plat,"[…], time 28 day",83 x10_4/uL
same,RBC,"[…], time 28 day",843.2 x10_4/ul
same,Ret,"[…], time 28 day",0.7%
same,WBC,"[…], time 28 day",61.3 x10_2/uL
same,KIDNEY_L,"[…], time 7 day",1 g
same,KIDNEY_R,"[…], time 7 day",1 g
same,KIDNEY_TOTAL,"[…], time 7 day",1.9 g
same,KIDNEY_L,"[…], time 14 day",0.9 g
same,KIDNEY_R,"[…], time 14 day",0.9 g
same,KIDNEY_TOTAL,"[…], time 14 day",1.7 g
same,KIDNEY_L,"[…], time 28 day",0.8 g
same,KIDNEY_R,"[…], time 28 day",0.8 g
same,KIDNEY_TOTAL,"[…], time 28 day",1.7 g
same,LIVER,"[…], time 7 day",12.4 g
same,LIVER,"[…], time 14 day",10.5 g
same,LIVER,"[…], time 28 day",7.9 g
same,A/G,"[…], time 7 day",1.8
same,ALP,"[…], time 7 day",740.8 IU/L
same,ALT,"[…], time 7 day",27.6 IU/L
same,AST,"[…], time 7 day",48.8 IU/L
same,BUN,"[…], time 7 day",20.4 mg/dL
same,CRE,"[…], time 7 day",0.5 mg/dL
same,Ca,"[…], time 7 day",11.5 mg/dL
same,Cl,"[…], time 7 day",105.6 meq/L
same,DBIL,"[…], time 7 day",0.008 mg/dL
same,GLC,"[…], time 7 day",169.4 mg/dL
same,IP,"[…], time 7 day",7.2 mg/dL
same,K,"[…], time 7 day",4.9 meq/L
same,LDH,"[…], time 7 day",83.8 IU/L
same,Na,"[…], time 7 day",139.6 meq/L
same,PL,"[…], time 7 day",174.2 mg/dL
same,RALB,"[…], time 7 day",4.1 g/dL
same,TBIL,"[…], time 7 day",0.3 mg/dL
same,TC,"[…], time 7 day",108 mg/dL
same,TG,"[…], time 7 day",116.6 mg/dL
same,TP,"[…], time 7 day",6.4 g/dL
same,gamma-GTP,"[…], time 7 day",1.4 IU/L
same,A/G,"[…], time 14 day",1.7
same,ALP,"[…], time 14 day",568 IU/L
same,ALT,"[…], time 14 day",27 IU/L
same,AST,"[…], time 14 day",52.8 IU/L
same,BUN,"[…], time 14 day",26.6 mg/dL
same,CRE,"[…], time 14 day",0.7 mg/dL
same,Ca,"[…], time 14 day",11.1 mg/dL
same,Cl,"[…], time 14 day",106.4 meq/L
same,DBIL,"[…], time 14 day",0.006 mg/dL
same,GLC,"[…], time 14 day",178.6 mg/dL
same,IP,"[…], time 14 day",6.3 mg/dL
same,K,"[…], time 14 day",4.3 meq/L
same,LDH,"[…], time 14 day",68.4 IU/L
same,Na,"[…], time 14 day",141 meq/L
same,PL,"[…], time 14 day",152.6 mg/dL
same,RALB,"[…], time 14 day",4.2 g/dL
same,TBIL,"[…], time 14 day",0.2 mg/dL
same,TC,"[…], time 14 day",96.4 mg/dL
same,TG,"[…], time 14 day",59.8 mg/dL
same,TP,"[…], time 14 day",6.7 g/dL
same,gamma-GTP,"[…], time 14 day",2.2 IU/L
same,A/G,"[…], time 28 day",2
same,ALP,"[…], time 28 day",628 IU/L
same,ALT,"[…], time 28 day",35.4 IU/L
same,AST,"[…], time 28 day",63.4 IU/L
same,BUN,"[…], time 28 day",25.8 mg/dL
same,CRE,"[…], time 28 day",0.7 mg/dL
same,Ca,"[…], time 28 day",10.5 mg/dL
same,Cl,"[…], time 28 day",108.6 meq/L
same,DBIL,"[…], time 28 day",0.056 mg/dL
same,GLC,"[…], time 28 day",161 mg/dL
same,IP,"[…], time 28 day",5.7 mg/dL
same,K,"[…], time 28 day",4.2 meq/L
same,LDH,"[…], time 28 day",62.6 IU/L
same,Na,"[…], time 28 day",141.2 meq/L
same,PL,"[…], time 28 day",150.6 mg/dL
same,RALB,"[…], time 28 day",4.3 g/dL
same,TBIL,"[…], time 28 day",0.2 mg/dL
same,TC,"[…], time 28 day",100.8 mg/dL
same,TG,"[…], time 28 day",44.6 mg/dL
same,TP,"[…], time 28 day",6.5 g/dL
same,gamma-GTP,"[…], time 28 day",3.2 IU/L
